Experimental data: US20240417410A1, “TRICYCLIC COMPOUNDS FOR THE TREATMENT OF CANCER” (Hoffmann-La Roche Inc., priority 2023, published 2024)

Columns and labels:
KRAS G12C-BRAF complex = KRAS G12C-BRAF complex (Homo sapiens (Human), UniProt P01116+P62937, G12C); assay: KRAS-BRAF with CYPA (500 nM) interaction assay (TR-FRET, Example 136); type: biochemical; conditions: KRAS G12C-BRAF disruption
SW620 cells (KRAS G12V) = assay: Cell viability assay (Cell Counting Kit-8, 3-day); type: cell-based, human; conditions: Homo sapiens, SW-620; SW620, 72 hrs incubation
Method in brief: (§1)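 IC50 derived by 4-parameter sigmoidal fit of CCK-8 signal (OD450−OD650, 2 h development) after 72 h compound exposure in 0.5% DMSO. Seeding density was 5,000 cells/well for NCI-H358 and 2,000 cells/well for AGS and SW620, plated overnight before dosing.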

AGS cells (KRAS G12D) = assay: Cell viability assay (Cell Counting Kit-8, 3-day); type: cell-based, human; conditions: Homo sapiens, 72 h, 72 hrs incubation
Method in brief: as §1

[1] = tested on: NCI-H358 cells (KRAS G12C); assay: Cell viability assay (Cell Counting Kit-8, 3-day); type: cell-based, human; conditions: Homo sapiens, NCI-H358, 72 h, NCI-H358, 72 hrs incubation
Method in brief: as §1

[2] = tested on: phosphorylation of ERK, KRAS G12C in NCI-H358 cells; assay: pERK inhibition assay; type: cell-based; conditions: Homo sapiens, NCI-H358, 4 h
Method in brief: (§2)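 NCI-H358 (KRAS G12C), AGS (G12D) and SW620 (G12V) cells plated overnight, then treated with compound for 4 h in 0.5% DMSO. After fixing and methanol permeabilisation, phospho-ERK was detected by in-cell ELISA (HRP/TMB, OD450). IC50 from a 4-parameter sigmoidal fit.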

[3] = tested on: phosphorylation of ERK, KRAS G12V in SW620; assay: pERK inhibition assay; type: cell-based; conditions: Homo sapiens, SW-620, 4 h, SW620 cells
Method in brief: as §2

[4] = tested on: phosphorylation of ERK, KRAS G12D in AGS cells; assay: pERK inhibition assay; type: cell-based; conditions: Homo sapiens, AGS, 4 h
Method in brief: as §2

Sequence of KRAS G12C-BRAF complex (P01116-2 other isoform, or with tags, fused parts or gaps G12C): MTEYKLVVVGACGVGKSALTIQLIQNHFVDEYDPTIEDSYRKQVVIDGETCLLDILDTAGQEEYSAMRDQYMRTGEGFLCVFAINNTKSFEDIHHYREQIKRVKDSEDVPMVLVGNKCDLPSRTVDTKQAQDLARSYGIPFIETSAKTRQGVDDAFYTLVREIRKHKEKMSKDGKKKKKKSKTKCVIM
Sequence of KRAS G12C-BRAF complex (P62937 whole entry): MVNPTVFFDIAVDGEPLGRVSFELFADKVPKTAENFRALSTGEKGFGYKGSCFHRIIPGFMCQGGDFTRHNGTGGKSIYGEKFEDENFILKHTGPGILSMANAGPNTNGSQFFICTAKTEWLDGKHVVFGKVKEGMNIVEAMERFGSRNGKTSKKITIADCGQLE

Row | Structure (SMILES) | IC50 (KRAS G12C-BRAF complex) | IC50 (SW620 cells (KRAS G12V)) | IC50 (AGS cells (KRAS G12D)) | IC50 [1] | IC50 [2] | IC50 [3] | IC50 [4]
1 | CO[C@@H](C)c1ncc(N2CCN(C)CC2)cc1-c1c2c3cc(cc4c3n1CC(F)(F)C4)-c1csc(n1)C[C@H](NC(=O)[C@H]1C[C@@H]1C)C(=O)N1CCC[C@H](N1)C(=O)OCC(C)(C)C2 (atropisomer, axis not shown; (M)) [Example 18, (1S,2S)-N-[(7S,13S)-23,23-difluoro-(20M)-20-[2-[(1S)-1-methoxyethyl]-5-(4-methylpiperazin-1-yl)-3-pyridyl]-17,17-dimethyl-8,14-dioxo-15-oxa-4-thia-9,21,30,31-tetrazahexacyclo[23.3.1.1^2,5.1^9,13.0^19,27.0^21,26]hentriaconta-1 (28),2,5 (31),19,25 (29),26-hexaen-7-yl]-2-methyl-cyclopropanecarboxamide] | 14.7 nM | 2.9 nM | 54.5 nM | 18 nM | 16.8 nM | 7.4 nM | 7.7 nM
2 | CO[C@@H](C)c1ncc(N2CCN(C)CC2)cc1-c1c2c3cc(cc4c3n1CCO4)-c1csc(n1)C[C@H](NC(=O)[C@H]1C[C@@H]1C(F)F)C(=O)N1CCC[C@H](N1)C(=O)OCC(C)(C)C2 (atropisomer, axis not shown; (M)) [Example 34, (1S,2S)-2-(difluoromethyl)-N-[(7S,13S)-(20M)-20-[2-[(1S)-1-methoxyethyl]-5-(4-methylpiperazin-1-yl)-3-pyridyl]-17,17-dimethyl-8,14-dioxo-15,24-dioxa-4-thia-9,21,30,31-tetrazahexacyclo[23.3.1.1^2,5.1^9,13.0^19,27.0^21,26]hentriaconta-1 (28),2,5 (31), 19,25 (29),26-hexaen-7-yl]cyclopropanecarboxamide] | 31.8 nM | 1.1 nM | 12.4 nM | 4.7 nM | < 0.6 nM | < 0.6 nM | 4.6 nM
3 | CO[C@@H](C)c1ncc(N2CCN(C)CC2)cc1-c1c2c3cc(cc4c3n1CCC4)-c1csc(n1)C[C@H](NC(=O)[C@H]1C[C@@H]1c1cncnc1)C(=O)N1CCC[C@H](N1)C(=O)OCC(C)(C)C2 (atropisomer, axis not shown; (M)) [Example 47, (1S,2S)-N-[(7S,13S)-(20M)-20-[2-[(1S)-1-methoxyethyl]-5-(4-methylpiperazin-1-yl)-3-pyridyl]-17,17-dimethyl-8,14-dioxo-15-oxa-4-thia-9,21,30,31-tetrazahexacyclo[23.3.1.1^2,5.1^9,13.0^19,27.0^21,26]hentriaconta-1 (28),2,5 (31), 19,25 (29),26-hexaen-7-yl]-2-pyrimidin-5-yl-cyclopropanecarboxamide] | 21.2 nM | 0.9 nM | 10.2 nM | 2.5 nM | 1.2 nM | 1.4 nM | 4.8 nM
4 | CO[C@@H](C)c1ncc(N2CCOCC2)cc1-c1c2c3cc(cc4c3n1CC(F)(F)C4)-c1csc(n1)C[C@H](NC(=O)[C@H]1C[C@@H]1c1cccnc1)C(=O)N1CCC[C@H](N1)C(=O)OCC(C)(C)C2 (atropisomer, axis not shown; (M)) [Example 91, (1S,2S)-N-[(7S,13S)-23,23-difluoro-(20M)-20-[2-[(1S)-1-methoxyethyl]-5-morpholino-3-pyridyl]-17,17-dimethyl-8,14-dioxo-15-oxa-4-thia-9,21,30,31-tetrazahexacyclo[23.3.1.1^2,5.1^9,13.0^19,27.0^21,26]hentriaconta-1 (28),2,5 (31),19,25 (29),26-hexaen-7-yl]-2-(3-pyridyl)cyclopropanecarboxamide] | 8.1 nM | 0.6 nM | 9.7 nM | 2.8 nM | 0.5 nM | 0.6 nM | 3.2 nM
5 | CO[C@@H](C)c1ncc(N2CCN(CC(F)(F)F)CC2)cc1-c1c2c3cc(cc4c3n1CCO4)-c1csc(n1)C[C@H](NC(=O)[C@H]1C[C@@H]1C)C(=O)N1CCC[C@H](N1)C(=O)OCC(C)(C)C2 (atropisomer, axis not shown; (M)) [Example 5, (1S,2S)-N-[(7S,13S)-(20M)-20-[2-[(1S)-1-methoxyethyl]-5-[4-(2,2,2-trifluoroethyl)piperazin-1-yl]-3-pyridyl]-17,17-dimethyl-8,14-dioxo-15,24-dioxa-4-thia-9,21,30,31-tetrazahexacyclo[23.3.1.1^2,5.1^9,13.0^19,27.0^21,26]hentriaconta-1 (28),2,5 (31), 19,25 (29),26-hexaen-7-yl]-2-methyl-cyclopropanecarboxamide] | 34.8 nM | 4.6 nM | 70 nM | 17.3 nM | 6.2 nM | 2.8 nM | 21.2 nM
6 | CO[C@@H](C)c1ncc(N2CCN(C)CC2)cc1-c1c2c3cc(cc4c3n1CC(F)(F)C4)-c1csc(n1)C[C@H](NC(=O)[C@H]1[C@@H]3COC[C@@H]31)C(=O)N1CCC[C@H](N1)C(=O)OCC(C)(C)C2 (atropisomer, axis not shown; (M)) [Example 60] | 15.2 nM | 1.7 nM | 32 nM | 8.2 nM | 2.3 nM | 0.9 nM | 8.2 nM
7 | CO[C@@H](C)c1ncc(N2CCN(C)CC2)cc1-c1c2c3cc(cc4c3n1CCC4)-c1csc(n1)C[C@H](NC(=O)[C@@H]1C[C@H]1c1cccnc1C)C(=O)N1CCC[C@H](N1)C(=O)OCC(C)(C)C2 (atropisomer, axis not shown; (M)) [Example 116, (1R,2R)-N-[(7S,13S)-(20M)-20-[2-[(1S)-1-methoxyethyl]-5-(4-methylpiperazin-1-yl)-3-pyridyl]-17,17-dimethyl-8,14-dioxo-15-oxa-4-thia-9,21,30,31-tetrazahexacyclo[23.3.1.1^2,5.1^9,13.0^19,27.0^21,26]hentriaconta-1 (28),2,5 (31), 19,25 (29),26-hexaen-7-yl]-2-(2-methyl-3-pyridyl)cyclopropanecarboxamide] | 20.6 nM | 0.5 nM | 3.5 nM | 1.4 nM | 0.8 nM | 0.7 nM | 4.6 nM
8 | CO[C@@H](C)c1ncc(N2CCN(C3CCOCC3)CC2)cc1-c1c2c3cc(cc4c3n1CCC4)-c1csc(n1)C[C@H](NC(=O)[C@H]1[C@H](C)[C@@H]1C)C(=O)N1CCC[C@H](N1)C(=O)OCC(C)(C)C2 (atropisomer, axis not shown; (M)) [Example 117, (1r,2R,3S)-N-[(7S,13S)-(20M)-20-[2-[(1S)-1-methoxyethyl]-5-(4-tetrahydropyran-4-ylpiperazin-1-yl)-3-pyridyl]-17,17-dimethyl-8,14-dioxo-15-oxa-4-thia-9,21,30,31-tetrazahexacyclo[23.3.1.1^2,5.1^9,13.0^19,27.0^21,26]hentriaconta-1 (28),2,5 (31), 19,25 (29),26-hexaen-7-yl]-2,3-dimethyl-cyclopropanecarboxamide] | 15.9 nM | 0.2 nM | 2.5 nM | 1.5 nM | 0.7 nM | 0.3 nM | 4.1 nM
9 | CO[C@@H](C)c1ncc(N2CCOCC2)cc1-c1c2c3cc(cc4c3n1CC(F)(F)C4)-c1csc(n1)C[C@H](NC(=O)[C@H]1C[C@@H]1C)C(=O)N1CCC[C@H](N1)C(=O)OCC(C)(C)C2 (atropisomer, axis not shown; (M)) [Example 75, (1S,2S)-N-[(7S,13S)-23,23-difluoro-(20M)-20-[2-[(1S)-1-methoxyethyl]-5-morpholino-3-pyridyl]-17,17-dimethyl-8,14-dioxo-15-oxa-4-thia-9,21,30,31-tetrazahexacyclo[23.3.1.1^2,5.1^9,13.0^19,27.0^21,26]hentriaconta-1 (28),2,5 (31),19,25 (29),26-hexaen-7-yl]-2-methyl-cyclopropanecarboxamide] | 29.7 nM | 3.6 nM | 58.7 nM | 20.2 nM | 4.9 nM | 2.6 nM | 23.6 nM
10 | CO[C@@H](C)c1ncc(N2CCN(CCC(C)(C)OC)CC2)cc1-c1c2c3cc(cc4c3n1CCC4)-c1csc(n1)C[C@H](NC(=O)[C@H]1[C@H](C)[C@@H]1C)C(=O)N1CCC[C@H](N1)C(=O)OCC(C)(C)C2 (atropisomer, axis not shown; (M)) [Example 123, (1r,2R,3S)-N-[(7S,13S)-(20M)-20-[2-[(1S)-1-methoxyethyl]-5-[4-(3-methoxy-3-methyl-butyl)piperazin-1-yl]-3-pyridyl]-17,17-dimethyl-8,14-dioxo-15-oxa-4-thia-9,21,30,31-tetrazahexacyclo[23.3.1.1^2,5.1^9,13.0^19,27.0^21,26]hentriaconta-1 (28),2,5 (31), 19,25 (29),26-hexaen-7-yl]-2,3-dimethyl-cyclopropanecarboxamide] | 13.7 nM | 0.6 nM | 5.1 nM | 3 nM | 0.8 nM | 0.6 nM | 7.1 nM
